# Ends that are not written are not given here.
# Experiments:
# KvLQT1/minK = KvLQT1/minK (Homo sapiens, UniProt P15382+P51787); assay: KvLQT1/minK ion channel assay; type: cell-based; conditions: SAFETYscan ion channel assay, up to 30 µM
# Protocol: Ion Channel Assays: Cell lines were grown, plated, and loaded with 1× loading buffer containing 1× dye and 2.5 mM freshly prepared probenecid. Assays were performed, and activity was measured using a FLIPR Tetra. Percent of activation and percent of inhibition were calculated to determine agonist and antagonist activity, respectively. […]
# The FLIPR Potassium Assay Kit from Molecular Devices is used. It exploits the permeability of thallium ions (Tl+) through both voltage-and ligand-gated potassium (K+) channels. A novel, highly-sensiti ve
# Tl+ indicator dye is utilized which produces a bright fluorescent signal upon the binding to Tl+ conducted through potassium chan-nels. […]
# KINOMEscan® Assay fluorescence for improved signal/noise ratio.
# The KINOMEscan screening platform employs a novel and propri- Membrane Potential Assay etary active site-directed competition binding assay to quantitatively The FLIPR® Membrane Potential Assay Kit is used which utilizes a pro-measure interactions between test compounds and the kinases. prietary fluorescent indicator dye in combination with a quencher to This robust and reliable assay technology affords investigators the reflect real-time membrane potential changes associated with ion ability to extensively annotate compounds with accurate, precise channel activation and ion transporter proteins. […]
# COX1 = target: T1, COX1 (Homo sapiens, UniProt P23219); assay: COX1 enzymatic assay; type: biochemical; conditions: up to 30 µM
# T1 construct: purchased BPS Bioscience
# T1 sequence (P23219 24-599): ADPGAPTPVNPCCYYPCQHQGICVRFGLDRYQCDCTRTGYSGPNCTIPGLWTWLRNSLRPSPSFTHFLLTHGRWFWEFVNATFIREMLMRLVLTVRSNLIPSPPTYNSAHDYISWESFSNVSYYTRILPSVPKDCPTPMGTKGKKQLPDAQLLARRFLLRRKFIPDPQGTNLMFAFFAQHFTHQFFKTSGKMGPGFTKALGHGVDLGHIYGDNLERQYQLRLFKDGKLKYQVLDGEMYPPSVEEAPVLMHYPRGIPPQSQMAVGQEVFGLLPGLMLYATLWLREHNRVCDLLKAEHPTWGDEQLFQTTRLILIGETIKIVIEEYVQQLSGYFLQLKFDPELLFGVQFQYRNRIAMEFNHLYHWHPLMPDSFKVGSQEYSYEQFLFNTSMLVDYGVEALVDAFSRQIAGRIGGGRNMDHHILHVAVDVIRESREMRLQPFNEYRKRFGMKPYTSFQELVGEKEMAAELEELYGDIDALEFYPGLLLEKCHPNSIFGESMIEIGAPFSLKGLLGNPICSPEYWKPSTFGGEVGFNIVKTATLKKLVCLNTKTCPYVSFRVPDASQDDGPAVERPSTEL
# Protocol: Enzymatic Assays: AChE, COX1, COX2, MAOA, PDE3A, and PDE4D2 activity assays were performed to determine CTP effects on each individual enzyme. Fluorescence was read using a PerkinElmer Envision, and percentage inhibition and compound activity calculated. […]
# in complementation with EA generating a unit of active β-gal and based assay for the detection of dopamine, norepinephrine or sero-production of a chemiluminescent signal upon the addition of Path- tonin transporter activity in cells expressing these transporters. The Hunter detection reagents. kit employs a fluorescent substrate that mimics the biogenic amine neurotransmitters that are taken into the cell through these specific transporters, resulting in increased intracellular fluorescence inten-sity. […]
# KINOMEscan® Assay fluorescence for improved signal/noise ratio. […]
# Compounds that bind the kinase active site and directly (sterically) be monitored within a single experiment. or indirectly (allosterically) prevent kinase binding to the immobi-lized ligand, will reduce the amount of kinase captured on the solid Calcium Assay […]
# kinase have no effect on the amount of kinase captured on the of changes in intracellular calcium. […] Upon stimulation, a quantitative, precise and ultra-sensitive qPCR method that detects the receptor signals release of intracellular calcium, which results in the associated DNA label (D). […]
# [1] = tested on: CD1, wild type, adult mice; assay: Cardiac MRI pre- and post-CTP injection; type: in vivo, mouse; conditions: male or female mice; immediately after CTP 150 µg/Kg i.v.; vs baseline
# Protocol: Cardiac Function Studies, Pre- and Post-Injections: Six CD1, wild type, 6–8-week-old adult mice were obtained from the Charles River and used for cardiac MRI studies. Mice were weighed, anesthetized with 2.5% isoflurane, and ear tags removed before being inserted into the MRI scanner. A baseline cardiac MRI was performed, followed by intravenous CTP injection (150 µg/Kg). Post-injection, a second cardiac MRI was performed.
# HEK-Nav1.5 (Peak) = HEK-Nav1.5 (Peak) (Homo sapiens, UniProt Q14524); assay: hNav1.5 (Peak) Sodium Channel Assay - Qube APC; conditions: CTP 0.1 to 30 µM; HEK cells; peak current, step to -15mV; 0.1% Pluronic F-68
# Chain of HEK-Nav1.5 (Peak) (Q14524 whole entry): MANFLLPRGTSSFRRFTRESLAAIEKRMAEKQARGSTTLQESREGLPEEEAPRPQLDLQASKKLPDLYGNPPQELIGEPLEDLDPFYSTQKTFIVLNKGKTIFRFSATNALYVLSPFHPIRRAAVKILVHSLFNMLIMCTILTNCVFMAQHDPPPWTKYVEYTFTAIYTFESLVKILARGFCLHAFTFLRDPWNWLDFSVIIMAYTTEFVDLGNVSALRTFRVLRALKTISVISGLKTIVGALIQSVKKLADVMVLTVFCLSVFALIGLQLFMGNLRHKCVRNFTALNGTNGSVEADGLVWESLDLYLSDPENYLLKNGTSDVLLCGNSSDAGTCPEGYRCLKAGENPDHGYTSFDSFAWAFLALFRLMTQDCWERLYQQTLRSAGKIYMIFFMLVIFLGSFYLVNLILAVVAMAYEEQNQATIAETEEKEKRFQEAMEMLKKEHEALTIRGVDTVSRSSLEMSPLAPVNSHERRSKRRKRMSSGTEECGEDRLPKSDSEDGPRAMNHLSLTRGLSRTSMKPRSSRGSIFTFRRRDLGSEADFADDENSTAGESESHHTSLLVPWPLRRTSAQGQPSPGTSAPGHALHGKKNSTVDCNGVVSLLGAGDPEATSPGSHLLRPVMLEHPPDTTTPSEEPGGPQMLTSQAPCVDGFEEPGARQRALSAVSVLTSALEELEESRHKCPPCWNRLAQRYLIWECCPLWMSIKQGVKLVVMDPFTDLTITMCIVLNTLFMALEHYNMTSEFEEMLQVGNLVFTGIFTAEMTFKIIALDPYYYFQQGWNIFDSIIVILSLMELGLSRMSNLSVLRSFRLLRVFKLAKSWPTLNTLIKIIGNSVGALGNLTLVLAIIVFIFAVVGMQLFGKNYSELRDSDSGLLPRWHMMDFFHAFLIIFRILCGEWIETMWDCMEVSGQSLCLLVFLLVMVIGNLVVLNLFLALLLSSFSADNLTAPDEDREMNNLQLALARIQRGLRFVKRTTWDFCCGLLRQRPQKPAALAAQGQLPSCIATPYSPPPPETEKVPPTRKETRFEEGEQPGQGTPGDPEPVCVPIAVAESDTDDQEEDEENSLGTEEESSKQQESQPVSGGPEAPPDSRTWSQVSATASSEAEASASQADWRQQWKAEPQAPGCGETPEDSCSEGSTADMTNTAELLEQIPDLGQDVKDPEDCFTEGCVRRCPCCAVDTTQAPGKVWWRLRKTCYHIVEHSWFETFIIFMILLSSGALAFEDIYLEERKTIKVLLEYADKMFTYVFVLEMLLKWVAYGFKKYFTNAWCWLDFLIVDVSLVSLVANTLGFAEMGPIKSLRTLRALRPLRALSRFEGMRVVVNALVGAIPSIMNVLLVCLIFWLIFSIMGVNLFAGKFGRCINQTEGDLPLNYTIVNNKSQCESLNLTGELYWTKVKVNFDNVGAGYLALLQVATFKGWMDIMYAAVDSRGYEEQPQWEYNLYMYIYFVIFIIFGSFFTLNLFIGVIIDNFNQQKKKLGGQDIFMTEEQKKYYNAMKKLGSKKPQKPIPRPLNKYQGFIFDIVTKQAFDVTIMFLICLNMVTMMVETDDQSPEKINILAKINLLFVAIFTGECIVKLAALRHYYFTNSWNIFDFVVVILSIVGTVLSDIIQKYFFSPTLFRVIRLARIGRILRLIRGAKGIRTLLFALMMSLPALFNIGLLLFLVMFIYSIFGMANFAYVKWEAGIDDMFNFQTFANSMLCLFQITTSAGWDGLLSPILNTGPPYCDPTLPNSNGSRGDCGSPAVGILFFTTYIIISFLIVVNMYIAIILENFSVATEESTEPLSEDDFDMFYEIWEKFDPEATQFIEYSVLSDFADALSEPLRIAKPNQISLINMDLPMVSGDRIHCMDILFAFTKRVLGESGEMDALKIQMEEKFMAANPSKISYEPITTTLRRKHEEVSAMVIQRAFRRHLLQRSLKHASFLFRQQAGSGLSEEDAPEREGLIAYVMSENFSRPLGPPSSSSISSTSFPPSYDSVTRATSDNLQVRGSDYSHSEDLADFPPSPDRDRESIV
# Chain of KvLQT1/minK (P51787 whole entry): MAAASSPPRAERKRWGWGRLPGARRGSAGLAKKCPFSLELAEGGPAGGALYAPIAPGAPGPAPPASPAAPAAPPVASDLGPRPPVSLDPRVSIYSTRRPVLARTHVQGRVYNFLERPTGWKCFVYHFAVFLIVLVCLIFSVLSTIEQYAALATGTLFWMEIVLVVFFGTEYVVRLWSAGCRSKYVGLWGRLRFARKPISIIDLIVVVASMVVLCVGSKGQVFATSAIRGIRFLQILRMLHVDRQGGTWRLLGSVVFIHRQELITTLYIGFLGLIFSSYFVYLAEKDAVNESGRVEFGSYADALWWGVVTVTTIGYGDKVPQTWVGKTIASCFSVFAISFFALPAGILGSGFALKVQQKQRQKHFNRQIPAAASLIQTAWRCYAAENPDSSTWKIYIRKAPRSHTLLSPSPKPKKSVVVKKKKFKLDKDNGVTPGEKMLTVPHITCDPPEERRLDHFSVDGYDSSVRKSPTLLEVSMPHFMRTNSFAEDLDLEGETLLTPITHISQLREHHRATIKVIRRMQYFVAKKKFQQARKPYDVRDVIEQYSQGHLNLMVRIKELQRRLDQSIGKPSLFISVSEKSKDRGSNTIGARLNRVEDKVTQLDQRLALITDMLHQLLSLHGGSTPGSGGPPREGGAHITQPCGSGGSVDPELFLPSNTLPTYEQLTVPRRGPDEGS
sequence,measurement,setting,value
APWHLSSQYSRT [CTP],blocking or activation,KvLQT1/minK,no significant blocking or activation
same,opening action,KvLQT1/minK,nor any significant opening action
same,inhibition,COX1,"some inhibition of COX1 was noted, although it did not reach the set significance threshold"
same,cardiac output,[1],no significant change
same,ejection fraction,[1],no significant change
same,heart rate,[1],no significant change
same,left ventricular mass,[1],no significant change
same,Estimated IC50,HEK-Nav1.5 (Peak),"N/C (Not calculable, inhibition >25% was not observed.)"

# — paper PMC10818749, “Toxicity Studies of Cardiac-Targeting Peptide Reveal a Robust Safety Profile” (Pharmaceutics, 2024)
